{
  "source": "patent US20200383926A1",
  "about": "“ENTERIC COATED PHARMACEUTICAL COMPOSITION AND USE THEREOF” (SHIN ERA TECHNOLOGY CO. LTD., priority 2017, published 2020)",
  "assay": "Phosphate binding assay (molybdate colorimetry, OD700) at pH 8.3",
  "details": "KH2PO4 0.53M, room temperature (about 25° C.), 2 hours",
  "procedure": "Since the phosphate uptake in human body mostly takes place in the intestine instead of stomach, we tested the phosphate-binding ability of the aforesaid 60% deacetylation chitosan citrate (CHS-60L) and 90% deacetylation chitosan citrate (CHS-90L) in an environment of pH 8.3, which mimicked to the intestine environment in vivo.\nBriefly, KH2PO4 and the present chitosan citrate were mixed at room temperature (about 25° C.) for 2 hours. Then, 2 μl of the mixture of each group (and KH2PO4 without reaction with binding agents) was mixed with 120 μl of acetate buffer (0.1 N acetic acid and 0.025 N of CH3COONa), 12 μl of ascorbic acid (1 wt %), and […] of NH4MoO4 (1%, in 0.05 N H2SO4) at room temperature for 20 to 30 minutes. After that, the OD700 of the mixture was detected by spectrometer. The conventional phosphate binding agent, calcium carbonate, was used as positive control of the experiment.",
  "data": [
    {"smiles": "O=C([O-])[O-].[Ca+2]", "note": "[calcium carbonate]", "values": [
      {"measurement": "Binding ability (%)", "setting": "binding agent 10 mM", "value": 70.90, "unit": "%"},
      {"measurement": "Binding ability (%)", "setting": "binding agent 20 mM", "value": 75.40, "unit": "%"}
    ]}
  ]
}
